Laboratory results reported in US20210008069A1, “THERAPEUTIC AGENT FOR INFLAMMATORY BOWEL DISEASE” (DAIICHI SANKYO COMPANY, LIMITED, priority 2018, published 2021).

Test system: DSS-induced colitis model
Experiment: Efficacy in model of dextran sulfate sodium-induced colitis
Type: in vivo, C57BL/6J mice
Description: A colitis model was prepared by allowing 7-week-old male C57BL/6J mice to freely drink a 1.5% aqueous solution of dextran sulfate sodium (hereinafter, DSS) dissolved in pure water purified through a Milli-Q (registered trademark, Merck Millipore) filter (hereinafter, referred to as Milli-Q water). For the control group, only Milli-Q water was administered. Simultaneously with the start of administration of DSS in drinking water, feed prepared by mixing Compound A (0.01%, 0.03%) with powdered FR-2 was administered to the feed administered group. For the vehicle group with feeding, and the control group, to which no DSS was administered, only powdered FR-2 was administered. The day on which the administration of DSS in drinking water and the administration of the compound were started was designated as Day 1, and the administration was continued until Day 8.
Control group: Milli-Q water, FR-2 (N=10) Vehicle group: 1.5% DSS solution, FR-2 (N=10) Compound A 0.01% group: 1.5% DSS solution, FR-2 mixed with 0.01% Compound A (N=10) Compound A 0.03% group: 1.5% DSS solution, FR-2 mixed with 0.03% Compound A (N=10)
All animals were weighed in the morning from Day 1 to Day 8. On Day 8, the abdomen was opened under isoflurane anesthesia, blood was collected from the abdominal vein by an untreated syringe, the duodenum, large intestine, rectum, and anus were removed, and the length of the removed large intestine was measured with an electric caliper. The large intestine was cut open to observe the stool properties and score the degree of diarrhea.

[1] = 0.03% Compound A in feed, Day 1 to Day 8, 1.5% DSS in drinking water, compared with negative control

Cc1nc(CC2CCN(c3ccc(-c4ccc(C[C@H](C)O)cc4)cc3)CC2)nc(C(=O)NCC(=O)O)c1O [Compound A, [({5-hydroxy-2-[(1-{4′-[(2S)-2-hydroxypropyl]biphenyl-4-yl}piperidin-4-yl)methyl]-6-methylpyrimidin-4-yl}carbonyl)amino]acetic acid]
Inhibitory effect on intestinal length shortening (intestinal tract length on Day 8) [1]: significant inhibitory effect on intestinal length shortening | Inhibitory effect on weight loss (amount of change in body weight on Day 8) [1]: significant inhibitory effect on weight loss | Diarrhea score on Day 8 (stool properties) (compound-administered group (0.01%, 0.03% in feed), 1.5% DSS, score 0-3 per Table 1, compared with negative control): tended to have improved stool properties | Effect on the clinical condition in DSS-induced colitis model (overall conclusion, mice, administration in feed Day 1 to Day 8): improving effect on the clinical condition
